According to ChEMBL document CHEMBL3507680, “University of Dundee, Gates Library screen for HepG2 cell viability”:

Assay: Human HepG2 cell viability assay in 384 well format
Format: toxicity, cell-based
Set-up: dose 125 nL, time 70.5 hour; concentration not given beside the values
Details: HepG2 cells, read-out: Inhibition

Compound | cytotoxicity at 70.5 h [%]
O=C(O)c1ccccc1CN1CCC2(Cc3ccccc3CNC2=O)C1 (centres undefined) | -5.35
O=C1NCc2ccccc2CC12CCCN(CCCc1ccccc1)C2 (centres undefined) | -3.38
Cc1cccc(CN2CCCC3(Cc4ccccc4CNC3=O)C2)n1 (centres undefined) | -5.77
Cn1nc(C2CCNC2)c2c(C(=O)NCC(F)(F)F)cc(C3CC3)nc21 (centres undefined) | -7.49
O=C(c1ccc(Cl)cc1)N1CCC(N2CCCNC2=O)CC1 | -6.78
O=C(c1ccc(Cl)cc1)N1CCC(N2CCCCC2=O)CC1 | -7.46
O=C(c1ccc(Cl)s1)N1CCC2(CNS(=O)(=O)c3cnccc3O2)C1 (centres undefined) | 19.5
O=C(c1cccnc1)N1CCC2(CNS(=O)(=O)c3cnccc3O2)C1 (centres undefined) | 17.8
CC(C)NC(=O)N1CCC(c2nnc3n2CCNC3)CC1 | 16.3
O=S1(=O)NCC2(CCCN(Cc3ccccn3)C2)Oc2ncccc21 (centres undefined) | 30.8
CN1CCC2(Cc3ccccc3CN(C(=O)Cc3cccc(Cl)c3)C2)C1 (centres undefined) | 30.2
CCCC(=O)N1Cc2ccccc2CC2(CCN(C)C2)C1 (centres undefined) | 22.5
O=C1Nc2ccccc2CC12CCCN2Cc1ccc(F)cc1 (centres undefined) | 9.33
O=C1Nc2ccccc2CC12CCCN2Cc1cccnc1 (centres undefined) | -2.78
CC(C)NC(=O)C1CCc2nnc(C(C)(C)C)n21 (centres undefined) | -5.68
CN1CC(=O)N(C2CCNCC2)Cc2c(NC3CCC3)ncnc21 | -7.06
Cc1nc(C(NC(=O)CN(C)C(C)C)c2ccccc2F)no1 (centres undefined) | -4.07
COc1cc(Br)c(CNc2ccn(CCC(N)=O)n2)cc1OC | -4.79
Cn1cc(N2CCN(c3ccc(C#N)cc3F)CC2=O)cn1 | -3.17
NC(=O)NC1(C(=O)N2CCc3c(Cl)cccc3C2)CCCCC1 | 8.62
CN(Cc1nc2ccccc2[nH]1)C(=O)CN(C)c1ccccc1 | -2.68
NC(=O)NC1CCN(Cc2ccc3c(c2)CCC3)CC1 | -5.94
CC(C)(C)NC(=O)c1cnc2n1CCCC2 | -6.71
Cc1ccc(F)c(CNc2ccn(CCC(N)=O)n2)c1 | 3.53

Compound | cytotoxicity at 70.5 h [%]
CN(Cc1cc(Br)cn1C)C(=O)Cc1cccnc1 | -9.83
COc1ccc2c(c1)CCCC2CC(=O)NCC(=O)O (centres undefined) | -4.55
Cn1ccc(N2CCCC(NC(=O)c3ccc(Cl)o3)C2=O)n1 (centres undefined) | -10.2
COc1ccc2c(c1)CCCC2CC(=O)NCC(C)(C)C(=O)O (centres undefined) | -10.7
CCC(C)(CC(=O)OC)NCc1nc(C)no1 (centres undefined) | 28.3
CCC(C)(CC(=O)OC)NCc1cc(C)on1 (centres undefined) | -11
CN1CCN(C(=O)C2(S(C)(=O)=O)CCCC2)Cc2ccccc21 | -13.4
N#Cc1cccc(NC(=O)N[C@H](CO)Cc2ccc(O)cc2)c1 | -9.73
Cc1cc(N2CCCC2c2cccnc2)nc(C)n1 (centres undefined) | 5.57
CCN1CCN2CCCN(S(=O)(=O)c3ccc(C)cc3C)C2C1=O (centres undefined) | -4.62
CCN1CCN2CCCN(S(=O)(=O)c3ccc(S(C)(=O)=O)cc3)C2C1=O (centres undefined) | -7.94
COCCn1cc(NC(=O)N(CCC(N)=O)Cc2ccccc2)cn1 | -14.4
O=C(CS(=O)(=O)Cc1cccc(Br)c1)Nc1cn[nH]c1 | -2.81
CCOC1CCN(C(=O)NCc2ccc(C(=O)N(C)C(C)C)cc2)CC1 | -18.5
Cc1cccc(S(=O)(=O)NCc2cccc(CS(C)(=O)=O)c2)c1 | 9.39
CCNC(=O)C(C)NC(=O)Nc1ccccc1SC(F)(F)F (centres undefined) | -10.8
CCNC(=O)C(C)NC(=O)Nc1ccccc1SCC (centres undefined) | -16.9
Cc1nc(C(=O)N(C)CC(F)(F)C(F)(F)F)c2ccccn12 | -13.5
CCn1ccnc1CN1CCN(c2nccc(OC)n2)CC1C (centres undefined) | 18.6
Cn1c(CCCNC(=O)Nc2cn[nH]c2)nc2ccccc21 | -3.29
CCc1ccc(CNc2cc(-c3ccoc3C)nn2CCO)o1 | -18.9
CN1CCc2ccc(NCc3cscn3)cc2C1=O | 2.5
CC(C)NC(=O)NC(=O)C(C)N1CCN(C2CCN(C(C)C)CC2)CC1 (centres undefined) | -3.33
COCCCC(=O)Nc1cccnc1N1CCCCC1 | -10.4

Compound | cytotoxicity at 70.5 h [%]
CCc1nnc(NC(=O)N(CCOC)Cc2ccc(C)o2)s1 | 14.4
COC1CCN(S(=O)(=O)N2CCCC2c2ccco2)CC1 (centres undefined) | 0.386
CCCN(Cc1ccccc1O)C(=O)Nc1cnn(CCOC)c1 | -12.8
CC(C)OC(=O)CC(NC(=O)CCn1cccn1)c1ccccc1 (centres undefined) | 5.59
CSC1(CNC(=O)N(C)Cc2ccc(C)s2)CCOCC1 | 15.5
CC(NCc1nnc2n1CCCC2)c1nc(Cc2ccccc2)no1 (centres undefined) | -8.89
CN(C)C(CNC(=O)OCC(F)(F)F)c1ccsc1 (centres undefined) | -8.54
CN(Cc1ccsc1)C(=O)c1nc(N2CCCCC2)ncc1Cl | -14.3
Cc1noc(C)c1CN(C)C(=O)c1nc(N2CCCC2)ncc1Cl | -11.7
CS(=O)(=O)NC1CCN(Cc2coc(-c3ccccc3)n2)CC1 | -9.14
CCN1CCC(NC(=O)N(C)Cc2csc3ccccc23)CC1 | -8.41
O=C(Nc1ccc(F)cc1F)NC1(CO)CCOCC1 | -4.4
c1cnn(C2CN(c3nc(-c4ccncc4)nc4c3CCC4)C2)c1 | -1.27
CS(=O)(=O)c1ccccc1NC(=O)N[C@@H]1c2ccccc2C[C@@H]1O | 12.9
CCC(C)c1csc(NC(=O)Cc2csc(-c3nnc[nH]3)n2)n1 (centres undefined) | 9.25
CC(C)Oc1ccccc1CNC(=O)N(C)CC(F)F | -3.01
CN(C)C(CNC(=O)CCNC(=O)OCC(F)(F)F)c1ccsc1 (centres undefined) | -0.647
CC(NCc1nnc2n1CCCC2)c1nc(C(C)(C)C)no1 (centres undefined) | -13.6
CSC1(CNC(=O)NCc2sccc2C)CCOCC1 | 2.45
CNC(=O)CCOC(=O)c1cccc(-n2ccc(C(F)(F)F)n2)c1 | 0.427
O=C(c1cc(C2CC2)nc2onc(-c3ccccc3)c12)N1CCOCC1 | 18.5
COc1cc(Cl)ccc1CNC(=O)N(C)C(C)CS(C)(=O)=O (centres undefined) | -7.57
CCCC(=O)NC1CCCN(c2cncc(Br)c2)C1 (centres undefined) | -10.5
CS(=O)(=O)c1ccccc1N[C@@H]1c2ccccc2C[C@@H]1O | 21.1

Compound | cytotoxicity at 70.5 h [%]
Cc1nn2cccnc2c1C(=O)NCc1ccccc1OC1CCC1 | -4.01
c1cc(NCc2ccsc2)cc(-c2nnc[nH]2)c1 | 1.3
Oc1c(F)cc(CNc2cccc(-c3nnc[nH]3)c2)cc1F | -9.32
COC(=O)C(NC(=O)c1ccc(C)cc1C)c1cccnc1 (centres undefined) | -7.04
Cn1c(N)nnc1SCc1c(F)cccc1Br | -3.61
Cn1c(CO)nnc1SCc1c(F)cccc1Br | -5.69
Cc1nn2cccnc2c1C(=O)NCc1ccnc(OCC2CC2)c1 | -12.1
Cc1noc(CCNC(=O)C2CSCN2C(=O)C2CCCC2)n1 (centres undefined) | -5.54
CC1CCN(c2ccc(C(=O)N3CCCC3c3nncn3C)cn2)CC1 (centres undefined) | 8.02
CC(C)(C)NC(=O)c1cccc(CN2CCS(=O)(=O)CC2)c1 | -4.97
CC(C)c1noc(OCC(=O)N(C)C(C)C)n1 | -12.3
CCN(CC)C(=O)COc1nc(C(C)C)no1 | 18.3
Cc1nc(CN2CCCN(C(=O)CC(C)n3cccc3)CC2)cs1 (centres undefined) | -12.7
O=S(=O)(CCN1CCCCC1Cn1cccn1)c1ccccc1 (centres undefined) | -28.3
Cc1cc(C(=O)N(CC2CCCO2)c2ccncc2)c(C)o1 (centres undefined) | -9.47
Cc1nn(CC(C)C)c(C)c1CC(=O)N1CCCC(CNS(C)(=O)=O)C1 (centres undefined) | -13.2
CC(=O)N(C)C1CCN(C(=O)NCCc2cc(F)ccc2F)CC1 | -13.7
N#Cc1cccnc1N1CCC(OCCc2ccccc2)CC1 | -9.51
Fc1cccnc1N1CCCC(c2nccs2)C1 (centres undefined) | -5.3
CN(Cc1cnn(C)c1)S(=O)(=O)N1CCCCCC1 | -9.53
CN(Cc1cnn(C)c1)S(=O)(=O)N1CCc2ccccc2C1 | 7.8
CC(=O)NCCC(=O)NCCCOc1c(C)cccc1C | -6.31
Cc1occc1C(=O)NCC(=O)NCCOc1cccc(Cl)c1 | -11.3
COC1CCN(C(=O)c2csc(-c3ccccc3F)n2)CC1 | -4.85

Compound | cytotoxicity at 70.5 h [%]
NC(=O)C1CCN(CC(=O)NCCc2c(F)cccc2F)CC1 | -7.99
Cc1cc(N2CCc3c(ncn3C)C2)nc(N)n1 | -0.513
COc1ccccc1CN1CCN(CCN2CCOC2=O)CC1 | 8.76
CCc1nc(CCNC(=O)NC2CCSCC2)cs1 | 5.18
CC(NC(=O)Nc1ccc(S(C)(=O)=O)cc1)c1ccc2c(c1)CC(=O)N2 (centres undefined) | -7.73
CS(=O)(=O)NC1CCN(C(=O)c2ccc3ccccc3c2)C1 (centres undefined) | 5.82
NC(=O)N1CCCN(CC(=O)NCCc2c(F)cccc2F)CC1 | -6.21
O=C(NCC1(O)CCSC1)c1ccoc1 (centres undefined) | -5.15
Cc1ccc(C(=O)NCc2ccccc2S(=O)(=O)N(C)CCO)cc1F | -1.52
O=C(CCc1cccs1)NCC1CCCN1c1cccnn1 (centres undefined) | 3.16
Cc1nsc(N2CCCN(C(=O)NCc3cccnc3)CC2)n1 | -0.506
O=C(NCc1nncn1C1CC1)Nc1ccc(OC2CCC2)c(F)c1 | -1.51
CCN1CCCC1CNC(=O)CCc1cccs1 (centres undefined) | -3.71
O=C(c1ccc2nccn2c1)N1CCCC1c1noc(C2CC2)n1 (centres undefined) | -5.7
CC(C)(C)NC(=O)CN1CCCN(Cc2ccc(C#N)cc2)CC1 | -6.11
Cc1cc(C)c(CCNC(=O)CN2CCCN(C(N)=O)CC2)c(C)c1 | 15.4
N#CCCN(Cc1ccco1)C(=O)c1ccc(OCC2CC2)cc1 | -4.89
CC(C)C(C)(C#N)NC(=O)CN1CCCN(Cc2ccccc2F)CC1 (centres undefined) | -3.81
CCn1cnnc1C1CCN(C(=O)CC(C)n2cccc2)CC1 (centres undefined) | -1.21
Cc1ccccc1-n1cnnc1SCC(=O)NCC1CCCO1 (centres undefined) | -8.74
CCC(C)NC(=O)c1ccc(CNC(=O)CC(C)(C)C)cc1 (centres undefined) | -9.82
CCC(C)NC(=O)c1cccc(CNC(=O)CC(F)(F)F)c1 (centres undefined) | -6.23
CCn1ccnc1CN1CCNCC1C (centres undefined) | -5.16
